This assay has as its target T1, human B1 (Homo sapiens, UniProt P46663).
T1 construct: host or cells: CHO-K1
T1 sequence (P46663 1-353): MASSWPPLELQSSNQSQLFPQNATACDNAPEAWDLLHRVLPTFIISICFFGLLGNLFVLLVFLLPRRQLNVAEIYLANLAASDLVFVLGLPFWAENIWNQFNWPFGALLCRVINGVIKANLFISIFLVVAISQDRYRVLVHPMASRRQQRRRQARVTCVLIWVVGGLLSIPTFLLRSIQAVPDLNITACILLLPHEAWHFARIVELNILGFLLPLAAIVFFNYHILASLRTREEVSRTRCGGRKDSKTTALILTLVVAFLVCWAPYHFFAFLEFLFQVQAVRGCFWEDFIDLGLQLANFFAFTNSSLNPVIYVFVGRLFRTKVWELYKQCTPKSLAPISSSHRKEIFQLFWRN
As to the kind of experiment: Calcium flux assay for Bradykinin B1 antagonist, CHO-K1 cell line expressing human B1. The assay is classed as cell-based. Particulars: CHO-K1 cells expressing human B1, agonist Lys-(Des-Arg)-Bradykinin, read-out: Potency (IC50 value against human B1). The procedure: Calcium Flux Assay for Bradykinin B1 Antagonist
The potency to inhibit the Bradykinin B1 receptors was determined for the compounds of this invention in a cell-based fluorescent calcium-mobilization assay. The assay measures the ability of test compounds to inhibit Bradykinin B1 receptor agonist-induced increase of intracellular free Ca^2+ in cell lines expressing B1.
The change of the intracellular Ca^2+ concentration is monitored with a specifically designed fluorescent plate reader (FlexStation, Molecular Devices).
CHO-K1 cell line expressing human B1 was purchased from Euroscreen (Gosselies, Belgium, with reference name hBl-D1). CHO-K1 cell lines expressing rat B1 or mouse B1 were established in the following way: the full-length receptor-coding cDNA clones were obtained by PCR performed on rat or mouse brain cDNAs. The respective cDNAs were cloned into an expression vector under the control of a CMV promotor. The resultant plasmids were introduced into CHO-K1 cells with liposome technology (FuGENE; Roche Diagnostics, Basel), according to the standard protocols described by the manufacturer. Cell lines expressing a Bradykinin receptor were selected in the culture medium containing 400 μg/ml G418 (Sigma). From selected cell populations, monoclonal cell lines were isolated by single cell cloning. The expression of Bradykinin receptors was confirmed by immunofluorescence staining of the cells, as well as by calcium flux assay.
Human B1-expressing cells were grown in Nutrient Mixture Ham's F12 (Sigma) containing 10% Foetal bovine serum (Sigma) and 400 μg/ml G418 (Sigma), 5 μg/ml puromycim (Sigma); Rat B1 and mouse B1-expressing cells were grown in DMEM/F12 medium (Sigma) containing 10% Foetal bovine serum (Sigma) and 400 μg/ml G418 (Sigma).
For the calcium flux assay, 80% confluent cells were detached from the culture vessels with Versene (Gibco; for human B1 cell-line) or with 1× trypsin-EDTA solution (Sigma; for rodent B1 cell-line), and seeded into 384-well plates (Cell binding Surface; Corning, N.Y.; #3683) at a density of 15,000 cells per well for human B1 or at a density of 20,000 cells per well for rodent B1. Cells were seeded in a volume of 50 μl in medium without antibiotics and incubated overnight in a humidified atmosphere with 5% CO2 at 37° C. The following day, the medium was replaced with 20 μl of 5 μM Fluo-4AM dye (Molecular Probes) in assay buffer (2.5 mM probenicid, 1 mg/ml pluronic acid, 0.1% BSA, 135 mM NaCl, 5 mM KCl, 1.8 mM CaCl, 1 mM MgCl2, 10 mM HEPES, 5.6 mM glucose, 0.05% gelatine, pH 7.4). The calcium indicator loaded cells were incubated at 37° C. for 2 hrs. Extracellular dye was then removed and each well was filled with 45 μl of assay buffer. Cell plates were kept in dark until used. Test compounds were assayed at 8 concentrations in triplicate. Serial 10-fold dilutions in 100% DMSO were made at a 100-times higher concentration than the final concentration, and then diluted 1:10 in assay buffer. 5 μl of each diluted compound was added to the well of cell plates (yielding final concentration with 1% DMSO), and incubated for 30 min at 25° C. before the addition of B1 agonist on the FlexStation.
The addition of agonist 20 μl per well to the assay plate was carried out on the FlexStation while continuously monitoring Ca^2+-dependent fluorescence at 538 nm. The integrated values, normalized with the background fluorescence, were plotted against the logarithm of the antagonist concentrations.

Structures are written as SMILES. A value given as a limit tells only on which side of the number the result lay.

`COc1cc(C)c(S(=O)(=O)N(C)Cc2cc(C(=O)N3CCN(CCc4ccncc4)CC3)co2)c(C)c1` [Ex 33, 4-methoxy-N,2,6-trimethyl-N-[(4-{[4-(2-pyridin-4-ylethyl)piperazin-1-yl]carbonyl}furan-2-yl)methyl]benzenesulfonamide]: the IC50 fell in the range of 0.1 to 1 µM. For `COc1cc(C)c(S(=O)(=O)N(C)Cc2cc(C(=O)N3CCN(Cc4ccncc4)CC3)co2)c(C)c1` [Ex 34, 4-methoxy-N,2,6-trimethyl-N-[(4-{[4-(pyridin-4-ylmethyl)piperazin-1-yl]carbonyl}furan-2-yl)methyl]benzenesulfonamide] the value was 0.1 to 1 µM. For `COc1cc(C)c(S(=O)(=O)N(C)Cc2cc(C(=O)N3CCN(CCN4CCOCC4)CC3)co2)c(C)c1` [Ex 35, 4-methoxy-N,2,6-trimethyl-N-[(4-{[4-(2-morpholin-4-ylethyl)piperazin-1-yl]carbonyl}furan-2-yl)methyl]benzenesulfonamide], the IC50 was 0.1 to 1 µM. The figure for `COc1cc(C)c(S(=O)(=O)N(C)Cc2cc(C(=O)NCCc3ccc(C4=N[C@@H]5CCCC[C@H]5N4)cc3)co2)c(C)c1` [Ex 36, N-(2-{4-[(3aR,7aR)-3a,4,5,6,7,7a-hexahydro-1H-benzimidazol-2-yl]phenyl}ethyl)-5-({[(4-methoxy-2,6-dimethylphenyl)sulfonyl](methyl)amino}methyl)furan-3-carboxamide] is 0.01 to 0.1 µM; for `COc1cc(C)c(S(=O)(=O)N(C)Cc2cc(C(=O)NCc3ccc(CN4CCCC4)cc3)co2)c(C)c1` [Ex 37, 5-({[(4-methoxy-2,6-dimethylphenyl)sulfonyl](methyl)amino}methyl)-N-[4-(pyrrolidin-1-ylmethyl)benzyl]furan-3-carboxamide] it is 0.1 to 1 µM; for `COc1cc(C)c(S(=O)(=O)N(C)Cc2cc(C(=O)N(C)Cc3ccc(-c4cncnc4)cc3)co2)c(C)c1` [Ex 38, 5-({[(4-methoxy-2,6-dimethylphenyl)sulfonyl](methyl)amino}methyl)-N-methyl-N-(4-pyrimidin-5-ylbenzyl)furan-3-carboxamide] it is 0.1 to 1 µM.

Regarding `COc1cc(C)c(S(=O)(=O)N(C)Cc2cc(C(=O)N3CCN(CCN4CCCC4)CC3)co2)c(C)c1` [Ex 39, 4-methoxy-N,2,6-trimethyl-N-[(4-{[4-(2-pyrrolidin-1-ylethyl)piperazin-1-yl]carbonyl}furan-2-yl)methyl]benzenesulfonamide], the IC50 was 0.1 to 1 µM. For `COc1cc(C)c(S(=O)(=O)N(C)Cc2cc(C(=O)N(C)Cc3ccc(C4=NCC(C)(C)CN4)cc3)co2)c(C)c1` [Ex 40, N-[4-(5,5-dimethyl-1,4,5,6-tetrahydropyrimidin-2-yl)benzyl]-5-({[(4-methoxy-2,6-dimethylphenyl)sulfonyl](methyl)amino}methyl)-N-methylfuran-3-carboxamide] the value was 0.1 to 1 µM; for `COc1cc(C)c(S(=O)(=O)N(C)Cc2cc(C(=O)N3CCC(CN4CCCC4)CC3)co2)c(C)c1` [Ex 41, 4-methoxy-N,2,6-trimethyl-N-[(4-{[4-(pyrrolidin-1-ylmethyl)piperidin-1-yl]carbonyl}furan-2-yl)methyl]benzenesulfonamide], 0.1 to 1 µM; for `COc1cc(C)c(S(=O)(=O)N(C)Cc2cc(C(=O)NCCc3ccc(CNCC(C)C)cc3)co2)c(C)c1` [Ex 42, 5-({[(4-methoxy-2,6-dimethylphenyl)sulfonyl](methyl)amino}methyl)-N-[2-(4-{[(2-methylpropyl)amino]methyl}phenyl)ethyl]furan-3-carboxamide], 0.1 to 1 µM.

Regarding `COc1cc(C)c(S(=O)(=O)N(C)Cc2cc(C(=O)N(C)Cc3ccc(-c4nccn4C)cc3)co2)c(C)c1` [Ex 43, 5-({[(4-methoxy-2,6-dimethylphenyl)sulfonyl](methyl)amino}methyl)-N-methyl-N-[4-(1-methyl-1H-imidazol-2-yl)benzyl]furan-3-carboxamide], the IC50 fell in the range of 0.1 to 1 µM. For `COc1cc(C)c(S(=O)(=O)N(C)Cc2cc(C(=O)NCCc3ccc(Nc4nccc(N)n4)cc3)co2)c(C)c1` [Ex 44, N-(2-{4-[(4-aminopyrimidin-2-yl)amino]phenyl}ethyl)-5-({[(4-methoxy-2,6-dimethylphenyl)sulfonyl](methyl)amino}methyl)furan-3-carboxamide] the value was 0.1 to 1 µM. The figure for `COc1cc(C)c(S(=O)(=O)N(C)Cc2cc(C(=O)NCCc3ccc(Nc4ccnc(N)n4)cc3)co2)c(C)c1` [Ex 45, N-(2-{4-[(2-aminopyrimidin-4-yl)amino]phenyl}ethyl)-5-({[(4-methoxy-2,6-dimethylphenyl)sulfonyl](methyl)amino}methyl)furan-3-carboxamide] is 0.1 to 1 µM; for `COc1cc(C)c(S(=O)(=O)N(C)Cc2cc(C(=O)NCCc3ccc(CN4CCCC4)cc3)co2)c(C)c1` [Ex 46, 5-({[(4-methoxy-2,6-dimethylphenyl)sulfonyl](methyl)amino}methyl)-N-{2-[4-(pyrrolidin-1-ylmethyl)phenyl]ethyl}furan-3-carboxamide] it is 0.1 to 1 µM; for `CCN(Cc1cc(C(=O)N(C)CCc2ccc(C3=NCCN3)cc2)co1)S(=O)(=O)c1c(C)cc(OC)cc1C` [Ex 47, N-{2-[4-(4,5-dihydro-1H-imidazol-2-yl)phenyl]ethyl}-5-({ethyl[(4-methoxy-2,6-dimethylphenyl)sulfonyl]amino}methyl)-N-methylfuran-3-carboxamide] it is less than 0.01 µM. For `COc1cc(C)c(S(=O)(=O)N(Cc2cc(C(=O)N(C)CCc3ccc(C4=NCCN4)cc3)co2)C(C)C)c(C)c1` [Ex 48, N-{2-[4-(4,5-dihydro-1H-imidazol-2-yl)phenyl]ethyl}-5-({[(4-methoxy-2,6-dimethylphenyl)sulfonyl](1-methylethyl)amino}methyl)-N-methylfuran-3-carboxamide] the value was 0.01 to 0.1 µM; for `COc1cc(C)c(S(=O)(=O)N(Cc2cc(C(=O)NCCc3ccc(C4=NCCN4)cc3)co2)CC2CC2)c(C)c1` [Ex 49, 5-({(Cyclopropylmethyl)[(4-methoxy-2,6-dimethylphenyl)sulfonyl]amino}methyl)-N-{2-[4-(4,5-dihydro-1H-imidazol-2-yl)phenyl]ethyl}furan-3-carboxamide], 0.01 to 0.1 µM. For `COc1cc(C)c(S(=O)(=O)N(Cc2cc(C(=O)N(C)Cc3ccc(C4=NCCN4)cc3)co2)c2ccccc2)c(C)c1` [Ex 50, N-[4-(4,5-dihydro-1H-imidazol-2-yl)benzyl]-5-({[(4-methoxy-2,6-dimethylphenyl)sulfonyl] (phenyl)amino}methyl)-N-methylfuran-3-carboxamide], the IC50 fell in the range of 0.1 to 1 µM. On to `COc1cc(C)c(S(=O)(=O)N(Cc2cc(C(=O)N(C)CCc3ccc(C4=NCCN4)cc3)co2)C2CCC2)c(C)c1` [Ex 51, 5-({Cyclobutyl[(4-methoxy-2,6-dimethylphenyl)sulfonyl]amino}methyl)-N-{2-[4-(4,5-dihydro-1H-imidazol-2-yl)phenyl]ethyl}-N-methylfuran-3-carboxamide], for which the IC50 was less than 0.01 µM. For `COc1cc(C)c(S(=O)(=O)N(Cc2cc(C(=O)NCCc3ccc(C4=NCCN4)cc3)co2)C2CC2)c(C)c1` [Ex 52, 5-({Cyclopropyl[(4-methoxy-2,6-dimethylphenyl)sulfonyl]amino}methyl)-N-{2-[4-(4,5-dihydro-1H-imidazol-2-yl)phenyl]ethyl}furan-3-carboxamide] the value was less than 0.01 µM.
